Test results reported in patent publication US20040038884A1, “Treatment of tinitus” (priority 2003, published 2004).
Where no end group is shown, it is not given here.

Columns and labels:
[1] = tested on: alpha9/alpha10 heteromeric acetylcholine receptor; assay: Block of the acetylcholine receptor of the inner ear (stated finding, no method given)
[2] = tested on: outer hair cells (OHCs); assay: Whole-cell patch-clamp recordings of inhibitory postsynaptic currents on outer hair cells; format: cell-based, Wistar rats; details: apamine 10 nM; OHCs held at −64 mV, high extracellular K+
Method: The preparation was performed in a solution containing (in mM) 144 NaCl, 5.8 KCl, 0.1 CaCl2, 2.1 MgCl2, 10 HEPES, 0.7 Na2HPO4, 5.6 glucose, pH adjusted to 7.3 with NaOH. For recordings, OHCs located between half and one turn from the apex of the cochlea were chosen. If necessary, supporting cells were removed with gentle suction from a cleaning pipette carefully avoiding mechanical disturbance of the efferent nerve terminals.
Whole-cell patch-clamp recordings were performed with an Axopatch 200B amplifier (Axon Instruments, Foster City, Calif.) at room temperature (22-25° C.). Electrodes were pulled from quartz glass, had resistances of 2-3 MΩ and were filled with intracellular solution (in mM): 135 KCl, 3.5 MgCl2, 0.1 CaCl2, 5 EGTA, 5 HEPES, 2.5 Na2ATP. The pH of the solution was adjusted to pH 7.3 with KOH. Membrane potential was corrected for the electrode junction potential (−4 mV). Whole-cell series resistance ranged from 4 to 9 MΩ and was not compensated. Currents were filtered at 1 kHz and sampled at 5 kHz.
The specimen were continuously superfused with extracellular solution (in mM: 144 NaCl, 5.8 KCl, 2 CaCl2, 0.9 MgCl2, 10 HEPES, 0.7 Na2HPO4, 5.6 glucose, pH adjusted to 7.3 with NaOH). Chemicals as well as depolarizing solutions were applied via a glass capillary (diameter approximately 80 μm) positioned close to the organ of Corti. […]

Compound | block of the acetylcholine receptor [1] | inhibition of postsynaptic currents (IPSCs) [2]
CC12CC3CC(C)(C1)CC(N)(C3)C2 [memantine, 3.5-dimethyl-1-adamantan-amine] | blocked efficiently | 
apamine (CNCKAPETALCARRCQQH; not fully specified (C-terminus, bridges); cysteine pairing not given here; UniProt P01500 28-45, looked up) |  | complete inhibition
